Read-outs that look alike come from different tables or passages of the source.
How the values were obtained:
H460 (lung carcinoma) = assay: 72-hour IC50 determination for adherent cells using sulforhodamine B (SRB); assay type: cell-based, human; settings: error is standard deviation of the mean, n ≧ 3, read-out: H460, 72-hour IC50 (Table E1-2)
Method: (§1) Certain provided compounds were tested in culture against a panel of three supplementary human cancer cell lines representing three additional tumor histologies (H460, lung carcinoma; 786-O, renal carcinoma; MCF-7, breast carcinoma). As shown in Table E1-2, the ETPs retain their potency across the cell lines. In some embodiments, a provided compound is active in all cell lines. In some embodiments, a provide compound can be used to selectively target certain cells and/or cancers. […] Without the intention to be limited, Applicant notes that certain cell lines could be more sensitive to provided compounds; for example, U-937 and HeLa are slightly more sensitive to the ETPs than the other three cell lines.
(§2) Cells were grown in media supplemented with fetal bovine serum (FBS) and antibiotics ([…]). Specifically, experiments were performed using the following cell lines and media compositions: U-937, HeLa, H460, and 786-O (RPMI-1640+10% FBS), and MCF7 (EMEM+10% FBS). Cells were incubated at 37° C. in a 5% CO2, 95% humidity atmosphere.
(§3) Adherent cells (HeLa, H460, 786-O, and MCF7) were added into 96-well plates (5,000 cells/well for HeLa cell line; 2,000 cells/well for H460, 786-O, and MCF7 cell lines) in 100 μL media and were allowed to adhere for 2-3 hours. Compounds were solubilized in DMSO as 100× stocks, added directly to the cells (100 μL final volume), and tested over a range of concentrations in triplicate (1% DMSO final) on a half-log scale. Concentrations tested ranged from […] to 10 μM, depending on the potency of the compound. DMSO and cell-free wells served as the live and dead control, respectively. After 72 hours of continuous exposure, the plates were evaluated using the SRB colorimetric assay as described previously (Vichai, V.; Kirtikara, K. Nature Prot. 2006, 1, 1112). Briefly, media was removed from the plate, and cells were fixed by the addition of 100 μL cold 10% trichloroacetic acid in water. After incubating at 4° C. for an hour, the plates were washed in water and allowed to dry. Sulforhodamine B was added as a 0.057% solution in 1% acetic acid (100 μL), and the plates were incubated at room temperature for 30 minutes, washed in 1% acetic acid, and allowed to dry. The dye was solubilized by adding 10 mM Tris base solution (pH 10.5, 200 μL) and incubating at room temperature for 30 minutes. Plates were read at λ=510 nm. IC50 values were determined from three or more independent experiments using TableCurve (San Jose, Calif.).

786-O (renal carcinoma) = assay: as above; assay type: cell-based, human; settings: error is standard deviation of the mean, n ≧ 3, read-out: 786-O, 72-hour IC50 (Table E1-2)
Method: as §1, §2, §3

MCF-7 (breast carcinoma) = assay: as above; assay type: cell-based, human; settings: error is standard deviation of the mean, n ≧ 3, read-out: MCF-7, 72-hour IC50 (Table E1-2)
Method: as §1, §2, §3

[1] = Stability observed on isolation (concentration / solution); settings: observed during isolation and characterization
[2] = system: HeLa (cervical carcinoma); assay: 72-hour IC50 determination for adherent cells using sulforhodamine B (SRB); assay type: cell-based, human
Method: (§4) Certain synthesized compounds were screened for their ability to induce death in two human cancer cell lines: U-937 (leukemic monocyte lymphoma) and HeLa (cervical cancer).
as §2, §3

[3] = system: U-937 (hystiocytic lymphoma); assay: 72-hour IC50 determination for non-adherent cells using MTS; assay type: cell-based, human
Method: as §4, §2
(§5) In a 96-well plate, compounds were pre-added as DMSO stocks in triplicate to achieve a final concentration of 1%. DMSO and cell-free wells served as the live and dead control, respectively. U-937 (5,000 cells/well) cells were distributed in 100 μL media to the compound-containing plate. After 72 hours, cell viability was assessed by adding 20 μL of a PMS/MTS solution (Cory, A. H.; Owen, T. C.; Barltrop, J. A.; Cory, J. G. Cancer Commun. 1991, 3, 207) to each well, allowing the dye to develop at 37° C. until the live control had processed MTS, and reading the absorbance at λ=490 nm. IC50 values were determined from three or more independent experiments using TableCurve (San Jose, Calif.).

human cancer cell lines = assay: Anticancer activity in human cancer cell lines, not tied to one cell line; assay type: cell-based; settings: for anticancer activity, in words: human cancer cell lines, 72-hour exposure; for change in activity across cell lines: five cell lines of Table E1-2
Method: as §4, §1, §3, §5

[4] = Homo sapiens, NCI-H460, 72-hour exposure
[5] = Homo sapiens, 786-0, 72-hour exposure
[6] = Homo sapiens, MCF7, 72-hour exposure
[7] = Homo sapiens, HeLa, 72-hour exposure, SRB, error is standard deviation of the mean, n ≧ 3, read-out: HeLa, 72-hour IC50 (Table E1-1)
[8] = Homo sapiens, HeLa, 72-hour exposure, SRB, error is standard deviation of the mean, n ≧ 3, read-out: HeLa, 72-hour IC50 (Table E1-2)
[9] = Homo sapiens, U-937, 72-hour exposure, MTS, error is standard deviation of the mean, n ≧ 3, read-out: U-937, 72-hour IC50 (Table E1-1)
[10] = Homo sapiens, U-937, 72-hour exposure, MTS, error is standard deviation of the mean, n ≧ 3, read-out: U-937, 72-hour IC50 (Table E1-2)
[11] = 72-hour exposure, SRB, error is standard deviation of the mean, n ≧ 3, read-out: HeLa, 72-hour IC50 (Table E1-1)
[12] = 72-hour exposure, SRB, error is standard deviation of the mean, n ≧ 3, read-out: HeLa, 72-hour IC50 (Table E1-2)
[13] = 72-hour exposure, MTS, error is standard deviation of the mean, n ≧ 3, read-out: U-937, 72-hour IC50 (Table E1-1)
[14] = 72-hour exposure, MTS, error is standard deviation of the mean, n ≧ 3, read-out: U-937, 72-hour IC50 (Table E1-2)
[15] = Homo sapiens, HeLa, 72 h, read-out: HeLa, 72-hour IC50 (Table E1-1)
[16] = Homo sapiens, HeLa, 72 h, read-out: HeLa, 72-hour IC50 (Table E1-2)
[17] = Homo sapiens, HeLa, 72 h, read-out: IC50 (HeLa)
[18] = Homo sapiens, U-937, 72 h, read-out: IC50 (U-937)
[19] = Homo sapiens, U-937, 72 h, read-out: U-937, 72-hour IC50 (Table E1-1)
[20] = Homo sapiens, U-937, 72 h, read-out: U-937, 72-hour IC50 (Table E1-2)

SMILES | IC50 (H460 (lung carcinoma); [4]) [nM] | IC50 (786-O (renal carcinoma); [5]) [nM] | IC50 (MCF-7 (breast carcinoma); [6]) [nM] | IC50 [2, 7] [nM] | IC50 [2, 8] [nM] | IC50 [3, 9] [nM] | IC50 [3, 10] [nM] | IC50 (H460 (lung carcinoma); 72-hour exposure) [nM] | IC50 (786-O (renal carcinoma); 72-hour exposure) [nM] | IC50 (MCF-7 (breast carcinoma); 72-hour exposure) [nM] | IC50 [2, 11] [nM] | IC50 [2, 12] [nM] | IC50 [3, 13] [nM] | IC50 [3, 14] [nM] | anticancer activity, in words (human cancer cell lines) | other results
CN1C(=O)[C@@]23C[C@]4(c5c[nH]c6ccccc56)c5ccccc5N(S(=O)(=O)c5ccccc5)[C@@H]4N2C(=O)[C@@H]1SSSS3 [Compound 28, C3-(Indol-3′-yl) epitetrathiodiketopiperazine] | 277 ± 43 | 344 ± 20 | 309 ± 31 | 137 ± 86 | 137 ± 86 | 8.3 ± 3.3 | 8.3 ± 3.3 | – | – | – | – | – | – | – | – | stability upon concentration or in solution [1]: instability in solution
CN1C(=O)[C@@]23C[C@]4(F)c5ccccc5N(S(=O)(=O)c5ccccc5)[C@@H]4N2C(=O)[C@@H]1SS3 [Compound 31, C3-Fluoro epidithiodiketopiperazines] | – | – | – | – | – | – | – | > 1000 | 368 ± 78 | 218 ± 97 | 1530 ± 440 | 1530 ± 440 | 20.7 ± 6.4 | 20.7 ± 6.4 | intermediately good activity | –
CN1C(=O)[C@@]23C[C@]4(c5cc[nH]c5)c5ccccc5N(S(=O)(=O)c5ccccc5)[C@@H]4N2C(=O)[C@@H]1SS3 [Compound 32, C3-(Pyrrol-3′-yl) epidithiodiketopiperazine] | 31.8 ± 2.5 | 66 ± 23 | 61 ± 11 | – | – | – | – | – | – | – | – | – | – | – | – | IC50 [2, 15]: 26.8 ± 4.8 nM; IC50 [2, 16]: 26.8 ± 4.8 nM; IC50 [2, 17]: 22 to 75 nM; IC50 [3, 18]: 2.8 to 14.8 nM; IC50 [3, 19]: 14.8 ± 3.1 nM; IC50 [3, 20]: 14.8 ± 3.1 nM; change in activity across cell lines (human cancer cell lines): 4 fold
CN1C(=O)[C@@]23C[C@]4(c5c[nH]c6ccccc56)c5ccccc5N[C@@H]4N2C(=O)[C@@H]1SSS3 [Compound 29, C3-(Indol-3′-yl) epitrithiodiketopiperazine] | 348 ± 110 | 168 ± 34 | 217 ± 35 | 123 ± 29 | 123 ± 29 | 24.5 ± 7.4 | 24.5 ± 7.4 | – | – | – | – | – | – | – | – | stability upon concentration or in solution [1]: tends to degrade
CN1C(=O)[C@@]23C[C@]4(c5c[nH]c6ccccc56)c5ccccc5N(S(=O)(=O)c5ccccc5)[C@@H]4N2C(=O)[C@@H]1SSS3 [Compound 27, C3-(Indol-3′-yl) epitrithiodiketopiperazine] | 146 ± 6.9 | 145 ± 10 | 151 ± 31 | 27.5 ± 9.2 | 27.5 ± 9.2 | 36.6 ± 2.4 | 36.6 ± 2.4 | – | – | – | – | – | – | – | – | stability upon concentration or in solution [1]: tends to degrade
CN1C(=O)[C@]23C[C@]4(F)c5ccccc5N(S(=O)(=O)c5ccccc5)[C@@H]4N2C(=O)[C@H]1SS3 [Compound 35, C3-Fluoro epidithiodiketopiperazines] | – | – | – | – | – | – | – | 123 ± 50 | 64 ± 20 | 93 ± 34 | 56 ± 21 | 56 ± 21 | 21.3 ± 8.7 | 21.3 ± 8.7 | intermediately good activity | –
CN1C(=O)[C@@]23C[C@]4([C@]56C[C@@]78SS[C@@](CO)(C(=O)N7[C@H]5Nc5ccccc56)N(C)C8=O)c5ccccc5N[C@@H]4N2C(=O)[C@]1(CO)SS3 [Compound 4, (+)-chaetocin A] | – | – | – | – | – | – | – | 53 ± 23 | 26.5 ± 7.7 | 50 ± 16 | 6.9 ± 2 | 6.9 ± 2 | 0.81 ± 0.15 | 0.81 ± 0.15 | active across the board | –
CN1C(=O)[C@@]23C[C@]4(Br)c5ccccc5N(S(=O)(=O)c5ccccc5)[C@@H]4N2C(=O)[C@@H]1SS3 [Compound 30, C3-Bromo epidithiodiketopiperazines] | – | – | – | – | – | – | – | 277 ± 44 | 162 ± 35 | 152 ± 42 | 44.9 ± 1.3 | 44.9 ± 1.3 | 5 ± 1.3 | 5 ± 1.3 | intermediately good activity | –
CN1C(=O)C23CC4(c5c[nH]c6ccccc56)c5ccccc5N(S(=O)(=O)c5ccccc5)C4N2C(=O)C1(C)SC(=S)S3 (centres unmarked) [Compound 64, C3-(Indo-3′-v)dithiepanethiones] | – | – | – | – | – | – | – | 222 ± 72 | 266 ± 85 | 210 ± 73 | 25.3 ± 2 | 25.3 ± 2 | 24 ± 12 | 24 ± 12 | competent anticancer agents | –
CN1C(=O)[C@@]23C[C@]4([C@]56C[C@@]78SS[C@@](C)(C(=O)N7[C@H]5Nc5ccccc56)N(C)C8=O)c5ccccc5N[C@@H]4N2C(=O)[C@]1(C)SS3 [Compound 3, (+)-12,12′-dideoxyverticillin A] | – | – | – | – | – | – | – | 42 ± 15 | 33.5 ± 12.6 | 28.4 ± 4.5 | 7.2 ± 3 | 7.2 ± 3 | 15.5 ± 2.9 | 15.5 ± 2.9 | active across the board | IC50 ([2]; 72-hour exposure, read-out: IC50 (HeLa)): 7.2 nM; IC50 ([3]; 72-hour exposure, read-out: IC50 (U-937)): 15.5 nM
COc1ccc([C@]23C[C@@]45SS[C@@H](C(=O)N4[C@H]2N(S(=O)(=O)c2ccccc2)c2ccccc23)N(C)C5=O)cc1 [Compound 33, C3-(p-Methoxyphenyl)epidithiodiketopiperazine] | 46.7 ± 5.3 | 83 ± 18 | 63 ± 16 | – | – | – | – | – | – | – | – | – | – | – | – | IC50 [2, 15]: 22.2 ± 10.9 nM; IC50 [2, 16]: 22.2 ± 10.9 nM; IC50 [2, 17]: 22 to 75 nM; IC50 [3, 18]: 2.8 to 14.8 nM; IC50 [3, 19]: 5 ± 2.1 nM; IC50 [3, 20]: 5 ± 2.1 nM; change in activity across cell lines (human cancer cell lines): 4 fold
CN1C(=O)[C@@]23C[C@]4([C@]56C[C@@]78SSSS[C@@](CO)(C(=O)N7[C@H]5Nc5ccccc56)N(C)C8=O)c5ccccc5N[C@@H]4N2C(=O)[C@]1(CO)SSSS3 [Compound 6, (+)-12,12′-dideoxychetracin A] | 39.3 ± 41 | 16 ± 2.4 | 22.5 ± 6 | 5.6 ± 1 | 5.6 ± 1 | 1.3 ± 0.5 | 1.3 ± 0.5 | – | – | – | – | – | – | – | active across the board | IC50 ([2]; Homo sapiens, HeLa, 72-hour exposure, read-out: IC50 (HeLa)): 5.6 to 6.9 nM; IC50 ([3]; Homo sapiens, U-937, 72-hour exposure, read-out: IC50 (U-937)): 0.75 to 1.3 nM
